Usually IC50 stands for the point on the concentration scale where inhibition reaches its midpoint. As a reminder, the Cmax is the maximum level reached in the sampled fluid or tissue. Broadly, the bioavailability is the share of a dose that reaches the circulation, judged against a reference dose that is usually intravenous. Lower therefore signals little systemic uptake. In general, Vd refers to a proportionality between amount in the body and measured concentration, not a real space. As usually defined, the AUC is the area under the concentration-time curve, a measure of exposure. Lower therefore signals low exposure.

Experimental findings from ChEMBL document CHEMBL1155009, “7-Aminopyrazolo[1,5-a]pyrimidines as potent multitargeted receptor tyrosine kinase inhibitors” (J Med Chem, 2008) are described below.

SMILES strings stand for the structures. Where only a bound is given, the exact number is not on record here.

Series [1] deals with T1, Vascular endothelial growth factor receptor 2 (Homo sapiens, UniProt P35968).
T1 sequence (P35968 whole entry): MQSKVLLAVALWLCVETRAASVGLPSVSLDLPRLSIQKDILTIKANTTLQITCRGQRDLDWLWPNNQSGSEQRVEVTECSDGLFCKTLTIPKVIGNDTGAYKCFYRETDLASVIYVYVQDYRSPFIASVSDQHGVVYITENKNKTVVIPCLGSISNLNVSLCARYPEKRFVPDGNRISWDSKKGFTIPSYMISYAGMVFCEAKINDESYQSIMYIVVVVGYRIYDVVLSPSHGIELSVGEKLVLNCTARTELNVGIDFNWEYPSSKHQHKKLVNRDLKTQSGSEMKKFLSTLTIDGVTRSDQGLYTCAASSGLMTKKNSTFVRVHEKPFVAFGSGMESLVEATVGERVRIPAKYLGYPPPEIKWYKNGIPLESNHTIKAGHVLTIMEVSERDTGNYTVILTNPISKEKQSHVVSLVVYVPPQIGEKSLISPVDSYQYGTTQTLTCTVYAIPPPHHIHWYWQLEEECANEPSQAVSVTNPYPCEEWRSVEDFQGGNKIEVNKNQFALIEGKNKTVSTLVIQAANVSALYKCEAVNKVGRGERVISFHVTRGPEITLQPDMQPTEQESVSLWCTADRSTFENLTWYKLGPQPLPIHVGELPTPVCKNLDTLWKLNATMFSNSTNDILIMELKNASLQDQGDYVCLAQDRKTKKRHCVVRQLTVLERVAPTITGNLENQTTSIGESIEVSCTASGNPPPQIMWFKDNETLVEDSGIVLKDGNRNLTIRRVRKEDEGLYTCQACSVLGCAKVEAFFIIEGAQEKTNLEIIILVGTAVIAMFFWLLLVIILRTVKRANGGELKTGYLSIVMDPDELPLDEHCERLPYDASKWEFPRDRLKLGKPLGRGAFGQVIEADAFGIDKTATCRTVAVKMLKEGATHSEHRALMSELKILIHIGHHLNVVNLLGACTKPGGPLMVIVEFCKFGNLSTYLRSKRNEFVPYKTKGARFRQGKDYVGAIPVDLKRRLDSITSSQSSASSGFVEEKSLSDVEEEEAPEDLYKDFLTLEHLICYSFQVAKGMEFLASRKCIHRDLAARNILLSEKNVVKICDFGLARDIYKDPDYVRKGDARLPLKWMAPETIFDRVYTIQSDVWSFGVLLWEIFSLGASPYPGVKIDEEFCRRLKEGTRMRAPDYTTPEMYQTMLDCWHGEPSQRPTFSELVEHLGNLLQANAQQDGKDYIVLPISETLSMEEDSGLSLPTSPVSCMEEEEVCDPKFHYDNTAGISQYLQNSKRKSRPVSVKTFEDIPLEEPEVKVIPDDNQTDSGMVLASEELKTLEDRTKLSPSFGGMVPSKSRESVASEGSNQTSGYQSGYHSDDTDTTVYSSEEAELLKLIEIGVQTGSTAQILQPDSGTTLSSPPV
Description: Inhibition of KDR by HTRF assay
Series [2] deals with Mus musculus. Description: Inhibition of estradiol-induced uterine edema in BALB/c mouse at 10 mg/kg, po administered 30 mins prior to 17-beta-estradiol challenge after 2 hrs. To be noted: read-out: INH.
Series [3] concerns Mus musculus. Description: Half life in CD1 mouse at 3 mg/kg, iv. Format: ADME, organism-based. Further details: dose 3 mg/kg, route intravenous. To be noted: in vivo.
A short description of series [4]: Cmax in CD1 mouse at 10 mg/kg, po. Format: ADME, organism-based. Further details: dose 10 mg/kg, route oral. Conditions: in vivo.
Series [5] is described as follows: Oral bioavailability in CD1 mouse at 10 mg/kg. Conditions: in vivo. Format: ADME, organism-based.
Series [6] concerns Mus musculus. In words: Volume of distribution in CD1 mouse at 3 mg/kg, iv. The class given is ADME, organism-based. Further details: dose 3 mg/kg, route intravenous. Conditions: in vivo.
Series [7] is described as follows: AUC in CD1 mouse at 10 mg/kg, po. To be noted: plasma. Further details: dose 10 mg/kg, route oral. The class given is ADME, organism-based.
Series [8] can be described thus: AUC in CD1 mouse at 3 mg/kg, iv. The class given is ADME, organism-based. Further details: dose 3 mg/kg, route intravenous. Conditions: plasma.
Series [9] concerns the target T1, Vascular endothelial growth factor receptor 2. In words: Inhibition of human KDR phosphorylation expressed in mouse NIH3T3 cells by ELISA. The class given is cell-based.

As for `COc1ccc(-c2cnc3c(Br)cnn3c2N)cc1`, in [1], the IC50 is > 12500 nM.

On to `Nc1c(-c2ccccc2)cnc2c(Br)cnn12`, for which the IC50 in [1] is > 12500 nM.

In series [1], `Nc1c(-c2ccc(NC(=O)Nc3cccc(Cl)c3)cc2)cnc2ccnn12` displayed a 50% inhibitory concentration (IC50) of 44 nM. In other words, the double-digit nanomolar range.

In [1], `Cc1ccc(F)c(NC(=O)Nc2ccc(-c3cnc4ccnn4c3N)cc2)c1` yielded an IC50 of 74 nM. This IC50 is about 1.7-fold higher than that of the compound before.

`COc1ccc(-c2cnc3c(-c4ccsc4)cnn3c2N)cc1` gave an IC50 in series [1] of 6100 nM.

As for `Cn1cc(-c2ccn3c(N)c(-c4ccc(NC(=O)Nc5cccc(Cl)c5)cc4)cnc23)cn1`, in the series on Mus musculus [2], the inhibition in vivo at 10 mg/kg is 27%.

Turning to `Cc1cccc(NC(=O)Nc2ccc(-c3cnc4c(C#N)cnn4c3N)cc2)c1`, it took 930 nM to reach half-maximal inhibition in series [1] (IC50).

For the compound `Cn1cc(-c2ccn3c(N)c(-c4ccc(NC(=O)Nc5ccc(F)c(C(F)(F)F)c5)cc4)cnc23)cn1`, the inhibition in vivo at 10 mg/kg in the series on Mus musculus [2] was < 15%.

For `CCN(CC)CCNC(=O)c1cnn2c(N)c(-c3ccc(NC(=O)Nc4cccc(C)c4)cc3)cnc12`, in series [1], the half-maximal inhibitory concentration (IC50) came to 500 nM.

Turning to `Cc1cccc(NC(=O)Nc2ccc(-c3cnc4cc(C)nn4c3N)cc2)c1`, in series [1], the IC50 was 3500 nM.

With `Cc1cccc(NC(=O)Nc2ccc(-c3cnc4cc(-c5ccccc5)nn4c3N)cc2)c1`, the IC50 in series [1] is > 12500 nM.

Regarding `Cc1ccccc1NC(=O)Nc1ccc(-c2cnc3c(Br)cnn3c2N)cc1`, in series [1], the IC50 is > 12500 nM.

`Cc1ccc(NC(=O)Nc2ccc(-c3cnc4c(Br)cnn4c3N)cc2)cc1` yielded an IC50 in series [1] of 810 nM.

Take `Cc1cccc(NC(=O)Nc2ccc(-c3cnc4c(Br)cnn4c3)cc2)c1`: in series [1], the IC50 is > 12500 nM.

For `Cc1cccc(NC(=O)Nc2ccc(-c3cnc4c(C(=O)O)cnn4c3N)cc2)c1`, the IC50 in series [1] worked out at 2000 nM. That is a single-digit micromolar value.

Turning to `Cc1cccc(NC(=O)Nc2ccc(-c3cnc4c(C(=O)N5CCN(C)CC5)cnn4c3N)cc2)c1`, in [1], the midpoint of inhibition, the IC50, lay at 790 nM.

For `Nc1ccc(-c2cnc3c(Br)cnn3c2N)cc1`, the IC50 in series [1] is > 12500 nM.

With `Cc1cccc(NC(=O)Nc2cccc(-c3cnc4ccnn4c3N)c2)c1`, the IC50 in series [1] is 6600 nM.

Consider `Cc1cccc(NC(=O)Nc2ccc(-c3cnc4c(-c5cnn(C)c5)cnn4c3N)cc2)c1`, for which the IC50 stood at 4 nM in series [1] and 0.7 nM in series [9]. In the series on Mus musculus [3], this compound came in with a t1/2 of 15 min. Moreover, the highest level in series [4] (Cmax) was 360 nM. In addition, the bioavailability in series [5] was 14%. This compound also returned a Vd in the series on Mus musculus [6] of 1.4 L/kg. The inhibition in vivo at 10 mg/kg in the series on Mus musculus [2] came to 49%. Also, the area under the curve (AUC) in series [7] was found to be 810 ng·h/mL; in series [8], 1800 ng·h/mL.

Take `Nc1c(-c2ccc(NC(=O)c3ccccc3)cc2)cnc2c(Br)cnn12`: the half-inhibitory concentration (IC50) in series [1] is > 12500 nM.

In series [1], `CNC(=O)c1cnn2c(N)c(-c3ccc(NC(=O)Nc4cccc(C)c4)cc3)cnc12` came in with an IC50 of 100 nM. In other words, the sub-micromolar range.

Consider `Cn1cc(-c2ccn3c(N)c(-c4ccc(NC(=O)Nc5cc(C(F)(F)F)ccc5F)cc4)cnc23)cn1`, for which the inhibition in vivo at 10 mg/kg with Mus musculus [2] was 45%.

`Nc1c(-c2ccc(NC(=O)Nc3ccccc3)cc2)cnc2c(Br)cnn12` returned an IC50 in series [1] of 1600 nM.

For the compound `Cc1cccc(NC(=S)Nc2ccc(-c3cnc4ccnn4c3N)cc2)c1`, the IC50 in series [1] was 10000 nM.
